Common to all, as to assay: In vitro percent disease control (radii of spore growth on agar)
Common to all, as to type: cell-based

For data set [1], the system named is Pyricalaria oryzae. The conditions noted are these: for inhibition of growth at 50 ppm: read-out: % controlled, Py. or., 50 ppm; for inhibition of growth at 100 ppm: read-out: % controlled, Py. or., 100 ppm. The method in brief:
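Compounds at 100 ppm and 50 ppm (10% acetone in water) mixed into potato-sucrose-agar, P. oryzae spotted centrally and incubated several days. Percent disease control derived from radii of spore growth.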

Data set [2] relates to Botryosphaeria dothidea Macrophoma sp. The conditions noted are these: Botryosphaeria dothidea, read-out: % controlled, Bo.do (Ma.). The method in brief:
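Compounds (100 and 50 ppm, 10% acetone in water) were mixed into potato-sucrose-agar and the fungus was spotted centrally, then incubated several days in a growth room. Percent disease control came from radii of spore growth.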

For data set [3], the system named is Phytophthora capsisi. The note with it: Phytophthora, read-out: % controlled, Phy ca. The method in brief: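 Compounds dissolved in acetone (10% of final volume) then water at 100 ppm and 50 ppm, mixed into potato-sucrose-agar; fungus spotted at plate centre and incubated several days. Percent disease control derived from radii of spore growth.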
Data set [4] concerns Botry tris cinerea. The conditions noted are these: read-out: % controlled, Bo ci. The method in brief: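 Compounds at 100 and 50 ppm (acetone 10% of final volume, rest water) mixed into potato-sucrose agar; Botrytis cinerea spotted at dish centre. After several days' incubation, percent disease control calculated from radii of spore growth.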
Data set [5] concerns Rhizopus sp. The note with it: Rhizopus, read-out: % controlled, Rhi. sp. The method in brief: (§1)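 Compounds in acetone (10% of final volume) diluted with water to 100 and 50 ppm, then mixed into potato-sucrose-agar with each fungus spotted centrally. Incubated several days in a growth room; percent disease control derived from radii of spore growth.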
Data set [6] deals with Alternaria mali. The conditions noted are these: Alternaria mali, read-out: % controlled, Al. The method in brief: as §1
Data set [7] relates to Rhizoctonia solani. The conditions noted are these: Rhizoctonia solani, read-out: % controlled, Rhy. so. The method in brief: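 Test compounds at 100 ppm and 50 ppm (acetone 10% of final volume, then water) were mixed into potato-sucrose-agar, and the fungus was spotted at the dish centre. Dishes were incubated several days in a growth room. Percent disease control was derived from the radii of spore growth.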

Data set [8] relates to Fusarium moniliforme. The method in brief: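 Compounds in 10% acetone/water at 100 and 50 ppm were mixed into potato-sucrose-agar, with Fusarium moniliforme spotted centrally. After several days' incubation, percent disease control was derived from radii of spore growth.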
Data set [9] deals with Physalospora baccae. The conditions noted are these: read-out: % controlled, Phy ba. The method in brief: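 Compounds at 100 and 50 ppm (10% acetone) mixed into potato-sucrose-agar, fungus spotted centrally and grown several days in a growth room. Percent disease control derived from radii of spore growth.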
The subject of data set [10] is Glomerella cingulata. The conditions noted are these: Colletotrichum gloeosporioides, read-out: % controlled, Glo. The method in brief:
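Compounds were dissolved in acetone (10% of final volume) plus water at 100 ppm and 50 ppm and mixed into potato-sucrose agar. G. cingulata was spotted centrally and incubated for several days in a growth room. Percent disease control was derived from the radii of spore growth.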

As to `C=CC[Si](C)(Cn1cncn1)C[Si](CC=C)(CC=C)c1ccc(F)cc1` (stereo not shown) [6-(4-fluorophenyl)-4-methyl-6-(2-propenyl)-4,6-disila-4-(1H-1,2,4-triazol-1-ylmethyl)-1,8-nonadiene], the inhibition of growth at 50 ppm in [1] is 100%; in data set [2], 79%; in [3], 55%; in data set [4], 90%; in data set [5], 56%; in data set [6] it was 78%. In addition, the inhibition of growth at 50 ppm in [7] worked out at 96%; in [9], 90%; in data set [10], 82%. In addition, the inhibition of growth at 100 ppm in data set [1] came out at 100%; in data set [2], 90%; in [3], 60%; in [4] it was 95%; in [5] it was 58%; in data set [6], 90%. Also, the inhibition of growth at 100 ppm was determined as 96% in [7], 95% in data set [9] and 85% in [10]. The “% controlled, Fu. mo.” value in [8] (50 ppm) and in [8] (100 ppm) was 60% each time.

`C=CC[Si](C)(Cn1cncn1)C[Si](CC=C)(c1ccccc1)c1ccc(F)cc1` (stereo not shown) [6-(4-fluorophenyl)-4-methyl-6-phenyl-4,6-disila-4-(1H-1,2,4-triazol-1-ylmethyl)-1,8-nonadiene]: the inhibition of growth at 50 ppm in data set [1] came out at 90%; in [2], 79%; in data set [3] it was 65%; in [4] it was 60%; in [5] it was 50%; in [6] it was 55%. Besides, the inhibition of growth at 50 ppm in data set [7] was 96%; in data set [9], 82%; in [10], 80%. For the same compound, the inhibition of growth at 100 ppm in data set [1] was found to be 90%; in data set [2], 79%; in [3], 70%; in data set [4] it was 70%; in data set [5], 50%; in [6], 92%. For the same compound, the inhibition of growth at 100 ppm in data set [7] was 96%; in [9], 82%; in [10] it was 85%. Moreover, the results for the “% controlled, Fu. mo.” value in data set [8] (50 ppm) and in [8] (100 ppm) were 60% and 66%, respectively.
